Measured values published in patent US20250230193A1, “CYCLIC COMPOUND HAVING SELECTIVE KRAS INHIBITORY EFFECT ON HRAS AND NRAS” (CHUGAI SEIYAKU KABUSHIKI KAISHA, priority 2022, published 2025).

What was measured:
[1] = target: GDP-bound NRAS wild-type protein (Homo sapiens, UniProt P01111); test: Binding to NRAS by surface plasmon resonance (SPR), Single Cycle Kinetics; details: KD ratio, GDP-bound NRAS wild-type vs GDP-bound KRAS wild-type, SPR
[2] = target: GDP-bound HRAS wild-type protein (Homo sapiens, UniProt P01112); test: Binding to HRAS by surface plasmon resonance (SPR), Single Cycle Kinetics; details: KD ratio, GDP-bound HRAS wild-type vs GDP-bound KRAS wild-type, SPR
Sequence of GDP-bound HRAS wild-type protein (P01112 whole entry): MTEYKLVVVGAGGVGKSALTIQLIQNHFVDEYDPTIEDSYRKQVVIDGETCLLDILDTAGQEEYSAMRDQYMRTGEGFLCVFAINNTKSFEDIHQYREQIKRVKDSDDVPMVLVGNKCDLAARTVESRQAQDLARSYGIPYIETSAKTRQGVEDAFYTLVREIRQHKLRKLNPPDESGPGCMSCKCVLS

Sequence of GDP-bound NRAS wild-type protein (P01111 whole entry): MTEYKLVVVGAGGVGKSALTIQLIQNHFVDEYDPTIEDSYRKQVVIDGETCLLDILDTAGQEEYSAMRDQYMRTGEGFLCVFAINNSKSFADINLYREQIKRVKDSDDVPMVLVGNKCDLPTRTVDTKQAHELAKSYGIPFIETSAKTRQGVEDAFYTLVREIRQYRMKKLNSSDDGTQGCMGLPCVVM

| Structure (SMILES) | NRAS/KRAS (ratio of KD value with respect to NRAS to KD value with respect to KRAS) [1] | HRAS/KRAS (ratio of KD value with respect to HRAS to KD value with respect to KRAS) [2] |
| --- | --- | --- |
| CCO[C@@H]1C[C@H]2C(=O)NC3(CCC3)C(=O)N(C)[C@@H](C3CCCC3)C(=O)N(C)[C@H](C(=O)N(C)C)CC(=O)N(C)[C@@H](CC)C(=O)N[C@@H]([C@@H](C)CC)C(=O)N(C)CC(=O)N(C)[C@H]3CCCCN(C3=O)[C@@H](Cc3ccc(C(F)(F)F)cc3)C(=O)N(C)CC(=O)N[C@@H](CCc3ccc(OC(F)F)c(F)c3)C(=O)N2C1 [PP0986] | C (A compound having a KD ratio of 0.1 or more and less than 3 is denoted as C) | C (A compound having a KD ratio of 0.1 or more and less than 3 is denoted as C) |
| CCO[C@@H]1C[C@H]2C(=O)NC3(CCC3)C(=O)N(C)[C@@H](C3CCCC3)C(=O)N(C)[C@H](C(=O)N(C)C)CC(=O)N(C)[C@@H](CC)C(=O)N[C@@H]([C@@H](C)CC)C(=O)N(C)CC(=O)N(C)[C@H]3CCCCN(C3=O)[C@@H](Cc3ccc(C(F)(F)F)cc3)C(=O)N(C)CC(=O)N[C@@H](CCc3ccc(Cl)c(Cl)c3)C(=O)N2C1 [PP0987] | C (A compound having a KD ratio of 0.1 or more and less than 3 is denoted as C) | C (A compound having a KD ratio of 0.1 or more and less than 3 is denoted as C) |
| CCO[C@@H]1C[C@H]2C(=O)NC3(CCC3)C(=O)N(C)[C@@H](C3CCCC3)C(=O)N(C)[C@H](C(=O)N(C)C)CC(=O)N(C)[C@@H](CC)C(=O)N[C@@H]([C@@H](C)CC)C(=O)N(C)CC(=O)N(C)[C@H]3CCCCN(C3=O)[C@@H](Cc3ccc(C(F)(F)F)cc3)C(=O)N(C)CC(=O)N[C@@H](CCc3cc(Cl)c(Cl)c(Cl)c3)C(=O)N2C1 [PP0988] | C (A compound having a KD ratio of 0.1 or more and less than 3 is denoted as C) | B (a compound having 3 or more and less than 10 is denoted as B) |
| CCO[C@@H]1C[C@H]2C(=O)NC3(CCC3)C(=O)N(C)[C@@H](C3CCCC3)C(=O)N(C)[C@H](C(=O)N(C)C)CC(=O)N(C)[C@@H](CC)C(=O)N[C@@H]([C@@H](C)CC)C(=O)N(C)CC(=O)N(C)[C@H]3CCCCCN(C3=O)[C@@H](Cc3ccc(C(F)(F)F)cc3)C(=O)N(C)CC(=O)N[C@@H](CCc3cc(Cl)c(C(F)(F)F)c(Cl)c3)C(=O)N2C1 [PP0989] | B (a compound having 3 or more and less than 10 is denoted as B) | B (a compound having 3 or more and less than 10 is denoted as B) |
| CCO[C@@H]1C[C@H]2C(=O)N[C@]3(C)CCCCCC[C@@H](C(=O)N[C@@H]([C@@H](C)CC)C(=O)N(C)CC(=O)N(C)[C@H]4CCCCN(C4=O)[C@@H](Cc4ccc(C(F)(F)F)cc4)C(=O)N(C)CC(=O)N[C@@H](CCc4cc(F)c(C(F)(F)F)c(F)c4)C(=O)N2C1)N(C)C(=O)C[C@@H](C(=O)N1CCOCC1)N(C)C(=O)[C@H](C1CCCC1)N(C)C3=O [PP0992] | B (a compound having 3 or more and less than 10 is denoted as B) | B (a compound having 3 or more and less than 10 is denoted as B) |
| CCO[C@@H]1C[C@H]2C(=O)N[C@@]3(C)CCCCCCC[C@@H](C(=O)N[C@@H]([C@@H](C)CC)C(=O)N(C)CC(=O)N(C)[C@H]4CCCCN(C4=O)[C@@H](Cc4ccc(C(F)(F)F)cc4)C(=O)N(C)CC(=O)N[C@@H](CCc4cc(F)c(C(F)(F)F)c(F)c4)C(=O)N2C1)N(C)C(=O)C[C@@H](C(=O)N1CCOCC1)N(C)C(=O)[C@H](C1CCCC1)N(C)C3=O [PP0993] | B (a compound having 3 or more and less than 10 is denoted as B) | B (a compound having 3 or more and less than 10 is denoted as B) |
| CCCCO[C@@H]1C[C@H]2C(=O)NC3(CCC3)C(=O)N(C)[C@@H](C3CCCC3)C(=O)N(C)[C@H](C(=O)N3CCOCC3)CC(=O)N(C)[C@@H](CC(C)C)C(=O)N[C@@H]([C@@H](C)CC)C(=O)N(C)CC(=O)N(C)[C@H]3CCCCN(C3=O)[C@@H](Cc3ccc(C(F)(F)F)cc3)C(=O)N(C)CC(=O)N[C@@H](CCc3cc(F)c(C(F)(F)F)c(F)c3)C(=O)N2C1 [PP0999] | C (A compound having a KD ratio of 0.1 or more and less than 3 is denoted as C) | B (a compound having 3 or more and less than 10 is denoted as B) |
| CC[C@H](C)[C@@H]1NC(=O)[C@H](CC(C)C)N(C)C(=O)C[C@@H](C(=O)N2CCOCC2)N(C)C(=O)[C@H](C2CCCC2)N(C)C(=O)C2(CCC2)NC(=O)[C@@H]2C[C@@H](OCC3CC3)CN2C(=O)[C@H](CCc2cc(F)c(C(F)(F)F)c(F)c2)NC(=O)CN(C)C(=O)[C@H](Cc2ccc(C(F)(F)F)cc2)N2CCCC[C@@H](C2=O)N(C)C(=O)CN(C)C1=O [PP1000] | B (a compound having 3 or more and less than 10 is denoted as B) | B (a compound having 3 or more and less than 10 is denoted as B) |
| CC[C@H](C)[C@@H]1NC(=O)[C@H](CC(C)C)N(C)C(=O)C[C@@H](C(=O)N2CCOCC2)N(C)C(=O)[C@H](C2CCCC2)N(C)C(=O)C2(CCC2)NC(=O)[C@@H]2C[C@@H](OCC3CCCC3)CN2C(=O)[C@H](CCc2cc(F)c(C(F)(F)F)c(F)c2)NC(=O)CN(C)C(=O)[C@H](Cc2ccc(C(F)(F)F)cc2)N2CCCC[C@@H](C2=O)N(C)C(=O)CN(C)C1=O [PP1001] | B (a compound having 3 or more and less than 10 is denoted as B) | B (a compound having 3 or more and less than 10 is denoted as B) |
| CC[C@H](C)[C@@H]1NC(=O)[C@H](CC(C)C)N(C)C(=O)C[C@@H](C(=O)N2CCOCC2)N(C)C(=O)[C@H](C2CCCC2)N(C)C(=O)C2(CCC2)NC(=O)[C@@H]2C[C@@H](OCC(F)F)CN2C(=O)[C@H](CCc2cc(F)c(C(F)(F)F)c(F)c2)NC(=O)CN(C)C(=O)[C@H](Cc2ccc(C(F)(F)F)cc2)N2CCCC[C@@H](C2=O)N(C)C(=O)CN(C)C1=O [PP1002] | B (a compound having 3 or more and less than 10 is denoted as B) | B (a compound having 3 or more and less than 10 is denoted as B) |
| CC[C@H](C)[C@@H]1NC(=O)[C@H](CC(C)C)N(C)C(=O)C[C@@H](C(=O)N2CCOCC2)N(C)C(=O)[C@H](C2CCCC2)N(C)C(=O)C2(CCC2)NC(=O)[C@@H]2C[C@@H](OC)CN2C(=O)[C@H](CCc2cc(F)c(C(F)(F)F)c(F)c2)NC(=O)CN(C)C(=O)[C@H](Cc2ccc(C(F)(F)F)cc2)N2CCCC[C@@H](C2=O)N(C)C(=O)CN(C)C1=O [PP1003] | C (A compound having a KD ratio of 0.1 or more and less than 3 is denoted as C) | B (a compound having 3 or more and less than 10 is denoted as B) |
| CCCCO[C@@H]1C[C@H]2C(=O)NC3(CCC3)C(=O)N(C)[C@@H](C3CCCC3)C(=O)N(C)[C@H](C(=O)N3CCOCC3)CC(=O)N(C)[C@@H](CC(C)C)C(=O)N[C@@H]([C@@H](C)CC)C(=O)N(C)CC(=O)N(C)[C@H]3CCCCCN(C3=O)[C@@H](Cc3ccc(C(F)(F)F)cc3)C(=O)N(C)CC(=O)N[C@@H](CCc3cc(F)c(C(F)(F)F)c(F)c3)C(=O)N2C1 [PP1004] | B (a compound having 3 or more and less than 10 is denoted as B) | B (a compound having 3 or more and less than 10 is denoted as B) |
| CC[C@H](C)[C@@H]1NC(=O)[C@H](CC(C)C)N(C)C(=O)C[C@@H](C(=O)N2CCOCC2)N(C)C(=O)[C@H](C2CCCC2)N(C)C(=O)C2(CCC2)NC(=O)[C@@H]2C[C@@H](OCC3CC3)CN2C(=O)[C@H](CCc2cc(F)c(C(F)(F)F)c(F)c2)NC(=O)CN(C)C(=O)[C@H](Cc2ccc(C(F)(F)F)cc2)N2CCCCC[C@@H](C2=O)N(C)C(=O)CN(C)C1=O [PP1005] | A (a compound having 10 or more and less than 20 is denoted as A) | A (a compound having 10 or more and less than 20 is denoted as A) |
| CC[C@H](C)[C@@H]1NC(=O)[C@H](CC(C)C)N(C)C(=O)C[C@@H](C(=O)N2CCOCC2)N(C)C(=O)[C@H](C2CCCC2)N(C)C(=O)C2(CCC2)NC(=O)[C@@H]2C[C@@H](OCC(F)F)CN2C(=O)[C@H](CCc2cc(F)c(C(F)(F)F)c(F)c2)NC(=O)CN(C)C(=O)[C@H](Cc2ccc(C(F)(F)F)cc2)N2CCCCC[C@@H](C2=O)N(C)C(=O)CN(C)C1=O [PP1006] | B (a compound having 3 or more and less than 10 is denoted as B) | B (a compound having 3 or more and less than 10 is denoted as B) |
| CCCCO[C@H]1CCN2C(=O)[C@H](CCc3cc(F)c(C(F)(F)F)c(F)c3)NC(=O)CN(C)C(=O)[C@H](Cc3ccc(C(F)(F)F)cc3)N3CCCCC[C@@H](C3=O)N(C)C(=O)CN(C)C(=O)[C@H]([C@@H](C)CC)NC(=O)[C@H](CC(C)C)N(C)C(=O)C[C@@H](C(=O)N3CCOCC3)N(C)C(=O)[C@H](C3CCCC3)N(C)C(=O)C3(CCC3)NC(=O)[C@H]12 [PP1009] | B (a compound having 3 or more and less than 10 is denoted as B) | B (a compound having 3 or more and less than 10 is denoted as B) |
| CC[C@H](C)[C@@H]1NC(=O)[C@H](CC(C)C)N(C)C(=O)C[C@@H](C(=O)N2CCOCC2)N(C)C(=O)[C@H](C2CCCC2)N(C)C(=O)C2(CCC2)NC(=O)[C@@H]2[C@@H](OCC3CC3)CCN2C(=O)[C@H](CCc2cc(F)c(C(F)(F)F)c(F)c2)NC(=O)CN(C)C(=O)[C@H](Cc2ccc(C(F)(F)F)cc2)N2CCCCC[C@@H](C2=O)N(C)C(=O)CN(C)C1=O [PP1010] | B (a compound having 3 or more and less than 10 is denoted as B) | B (a compound having 3 or more and less than 10 is denoted as B) |
